Results: patent US11058653B2, “Compositions comprising desaminotyrosine and uses thereof to enhance type I interferon stimulation” (Washington University, priority 2016, dated 2021)
“Also recorded” adds a separate entry of the source.

Legend:
[1] = test system: influenza A/WSN/33 (rWSN) H1N1 virus; conditions: mouse, in vivo
[2] = Barrier function: 4 kD dextran (FD4) in serum after gavage; format: in vivo, mice; conditions: VNAM 2 weeks then 200 mM desaminotyrosine 1 week in drinking water
Procedure: FIG. 17A depicts a graph quantifying the amount of damaged area following treatment with DSS +/−desaminotyrosine. FIG. 17B depicts a graph dextrain-FD4 measured in the serum of mice treated with VNAM for 2 weeks and then +/−200 mM of desaminotyrosine for 1 week in the drinking water. 4 kD Dextran was administered by gavage and serum collected 4 hours post-gavage.

[3] = test system: type I IFN signaling in BMDMs; format: cell-based, mouse
[4] = test system: H1N1 influenza strain California/09; assay: Influenza infection of mice, strain California/09; format: in vivo; conditions: mice infected with California/09
From the text: (§1) FIG. 19A, FIG. 19B, FIG. 19C, FIG. 19D, FIG. 19E, FIG. 19F, FIG. 19G, FIG. 19H, FIG. 19I, FIG. 19J, FIG. 19L, FIG. 19K, FIG. 19M, and FIG. 19N (FIG. 19A and FIG. 19B) Representative images of influenza H1N1 staining by polyclonal antibody on lung cross sections from wild-type (WT) (FIG. 19A) and Irgm1^−/− (FIG. 19B) mice 6 days postinfection (representative images from 5-6 mice per group from two experiments). Bar=200 μm. (FIG. 19C and FIG. 19D) Stool (FIG. 19C) and serum (FIG. 19D) desaminotyrosine levels measured by mass spectroscopy in wild-type mice mock or treated with two weeks of antibiotics and then treated with 200 mM desaminotyrosine in drinking water for one week (n=5-13 per group from two experiments). (FIG. 19E, FIG. 19F, FIG. 19G, and FIG. 19H) Kaplan-Meier survival analysis of nonantibiotic and antibiotic-treated wild-type mice given control or desaminotyrosine in drinking water and then infected with H1N1 influenza strains PR8 (FIG. 19E and FIG. 19F) or Cali/09 (FIG. 19G and FIG. 19H) (n=10 mice per group). *p<0.05 by Mantel-Cox test. (FIG. 19I) Kaplan-Meier survival analysis of wild-type mice treated with indicated antibiotic(s) and then infected with influenza (n=20 mice per group from two experiments). *p<0.05, **p<0.01, and ****p<0.0001 compared to mock treated infected mice by Mantel-Cox test with Bonferroni-corrected threshold. […]

[5] = test system: H1N1 influenza strain PR8; assay: Influenza infection of mice, strain PR8; format: in vivo; conditions: mice infected with PR8
From the text: as §1

[6] = test system: type I IFN response elements (ISREs); assay: ISRE luciferase reporter metabolic screen (2fTGH-ISRE-CBG99 cell line); format: cell-based
From the text: Therefore, a library of microbiome associated metabolites was screened for the ability to enhance type I IFN signaling.^21 A reported cell line that harbors multiple type I IFN response elements (ISREs) driving firefly luciferase was utilized.^22 Each metabolite was screened for the ability to enhance reporter activity in the background of type I IFN or polyIC (an inducer of type I IFN production) treatment (schematic FIG. 4A). Using this methodology, 11 metabolites were identified that increased reporter activity following polyIC co-stimulation (FIG. 4B) and 5 metabolites that increased ISRE reporter activity with type I IFN co-stimulation (FIG. 10).
Metabolites were screened using the 2fTGH-ISRE-CBG99 luciferase cell line.^22 The day before screening the reporter cells were plated at 3×10^4 cell/well in 96 well plates. […] Luciferase was measured at 14 hours post-treatment for IFN-β, and 24 hours post-treatment for poly(IC) using the […] […] Plates were read on a luminometer (1 second read time) using the CYTATION 5 (BioTek). For secondary validation, cells were treated with 1000 μM, 100 μM, 10 μM, and 1 μM of metabolite and 5 or 50 U/ml of IFN-β (PBL Assay Science) or 2.5 or […] of poly(IC) (Amersham Biosciences) and measured as above.

[7] = test system: dextran sodium sulfate (DSS) induced colitis; format: in vivo; conditions: antibiotic treated mice, 2.5% DSS
[8] = test system: bone marrow derived macrophages infected with Influenza H1N1; format: cell-based
[9] = test system: type I IFN activity; format: in vivo, mice; conditions: after 2-week antibiotic course; desaminotyrosine orally plus polyIC injections vs polyIC alone
[10] = test system: epithelial proliferation; assay: Crypt height and epithelial proliferation in mice; format: in vivo; conditions: VNAM 2 weeks, then 200 mM desaminotyrosine in drinking water
Procedure: FIG. 13 depicts an experimental scheme of mice treated with VNAM for 2 weeks and then give +/−200 mM desaminotyrosine in the drinking water for 1 week. After 1 week, the mice were continued on +/−200 mM desaminotyrosine and then treated with +/−1 mg/kg polyIC intraperitoneally once per day for 4 days and then sacrificed 1 day later.
(FIG. 14A, FIG. 14B, FIG. 14C, and FIG. 14D) Representative images of the crypt height for control (FIG. 14A), polyIC (FIG. 14B), deasminotyrosine, (FIG. 14C), and desaminotyrosine+polyIC (FIG. 14D) treated mice. FIG. 14E depicts a graph quantifying the crypt height after the various treatments relative to the control treated mice.
To examine the effects of desaminotyrosine on epithelial proliferation, mice were treated with and without antibiotics for 2 weeks and then with or without desaminotyrosine for […] and with or without polyIC (FIG. 13).

Compound | influenza associated-mortality [1] | barrier function (dextran-FD4 in serum 4 hours post-gavage) [2] | polyIC and type I IFN expression of IP-10 ([3]; BMDMs from Mavs−/− mice) | IP-10 expression ([3]; BMDMs from Stat1−/− mice, polyIC or type I IFN with desaminotyrosine) | ISG transcript abundance (IP-10) ([3]; wild-type BMDMs, combined with either polyIC or type I IFN) | protection (survival) [4] | protection (survival) [5] | ISRE reporter activity (fold increase in luminescence), type I IFN signaling ([6]; with polyIC co-stimulation) | ISRE reporter activity (fold increase in luminescence), type I IFN signaling ([6]; with type I IFN (IFN-β) co-stimulation) | response to DSS injury (epithelial proliferation, crypt preservation, damage) [7] | damaged area of the distal colon after DSS treatment ([7]; with desaminotyrosine (control mice ~90%)) [%] | influenza RNA in bone marrow derived macrophages ([8]; 24 hours pretreatment (100 μM), then infection MOI-2 48 hours, IFN/Ifnar-dependent) | ISG transcripts (Oas1, IP-10) after in vitro influenza infection ([8]; pretreated BMDMs, Ifnar-dependent) | type I IFN activity in the serum [9] | airway epithelial damage and apoptosis (H+E, cleaved caspase 3) [1] | desaminotyrosine mediated protection (survival) [1] | phenotypes associated with antibiotic treatment (morbidity and mortality) [1] | viral RNA in the lungs (matrix, qRT-PCR) [1] | crypt height [10] | epithelial proliferation ([10]; alone)
CN[C@H](CC(C)C)C(=O)N[C@H]1C(=O)N[C@@H](CC(N)=O)C(=O)N[C@H]2C(=O)N[C@H]3C(=O)N[C@H](C(=O)N[C@H](C(=O)O)c4cc(O)cc(O)c4-c4cc3ccc4O)[C@H](O)c3ccc(c(Cl)c3)Oc3cc2cc(c3O[C@@H]2O[C@H](CO)[C@@H](O)[C@H](O)[C@H]2O[C@H]2C[C@](C)(N)[C@H](O)[C@H](C)O2)Oc2ccc(cc2Cl)[C@H]1O [vancomycin, reference compound] | enhanced influenza associated-mortality | – | – | – | – | – | – | – | – | – | – | – | – | – | – | – | – | – | – | –
Cc1ncc([N+](=O)[O-])n1CCO [metronidazole, reference compound] | enhanced influenza associated-mortality | – | – | – | – | – | – | – | – | – | – | – | – | – | – | – | – | – | – | –
O=C(O)CCc1ccc(O)cc1 [desaminotyrosine, 3-(4-hydroxyphenyl)propanoic acid] | – | no effect on barrier function; also recorded: Not significant | still enhanced | not enhanced | increased | protected | protected | enhanced type I IFN signaling in a dose-dependent manner | enhanced type I IFN signaling in a dose-dependent manner | promoted epithelial profliferation and crypt preservation; also recorded: rescues DSS damage | ~8 | decreased influenza RNA; also recorded: depleted | increased ISG transcripts | increased type I IFN activity in the serum | greater airway epithelial damage and apoptosis were observed in control lungs | abolished | recused the phenotypes associated with antibiotic treatment | less viral RNA was found in the lungs | increased crypt height | increased; also recorded: stimulated epithelia proliferation in the small intestine alone
